In BindingDB's records for doi:10.1016/j.bmcl.2013.04.079 (Bristol-Myers Squibb, 2013):

assay: Antagonist activity at human CCR1 assessed as inhibition of HCC-1-induced chemotaxis

IC50 [nM]	SMILES
4	CC(C)[C@@H](NC(=O)[C@@H]1CC[C@@H](O)C1)C(=O)N1CC[C@](O)(c2ccc(Cl)cc2)C(C)(C)C1

assay: Antagonist activity at human CCR1 assessed as inhibition of RANTES-induced chemotaxis

IC50 [nM]	SMILES
1	CC(C)[C@@H](NC(=O)[C@@H]1CC[C@@H](O)C1)C(=O)N1CC[C@](O)(c2ccc(Cl)cc2)C(C)(C)C1

assay: Antagonist activity at human CCR1 assessed as inhibition of MPIF-1-induced chemotaxis

IC50 [nM]	SMILES
2.7	CC(C)[C@@H](NC(=O)[C@@H]1CC[C@@H](O)C1)C(=O)N1CC[C@](O)(c2ccc(Cl)cc2)C(C)(C)C1

assay: Antagonist activity at human CCR1 assessed as inhibition of MIP1alpha-induced chemotaxis

SMILES	IC50 [nM]
CC(C)[C@@H](NC(=O)c1cccc(-c2ccccc2NC(N)=O)c1)C(=O)N1CCC(c2ccc(Cl)cc2)CC1	153
CC(C)[C@@H](NC(=O)c1cccc(S(N)(=O)=O)c1)C(=O)N1CCC(c2ccc(Cl)cc2)CC1	123
CC(C)[C@@H](NC(=O)Cc1ccncc1)C(=O)N1CCC(c2ccc(Cl)cc2)CC1	107
CC(C)[C@@H](NC(=O)c1cccc(-c2ccccc2NC(N)=O)c1)C(=O)N1CC[C@](O)(c2ccc(Cl)cc2)C(C)(C)C1	48
CC(C)[C@@H](NC(=O)c1ccc(F)c(O)c1)C(=O)N1CCC(c2ccc(Cl)cc2)CC1	48
CC(C)[C@@H](NC(=O)c1cccnc1)C(=O)N1CC[C@H](c2ccc(Cl)cc2)C(C)(C)C1	29
CC(C)[C@@H](NC(=O)c1cccnc1)C(=O)N1CC[C@](O)(c2ccc(Cl)cc2)C2(CC2)C1	21
CC(C)[C@@H](NC(=O)C1CCCC1)C(=O)N1CCN(c2ccc(Cl)cc2)C(C)(C)C1	18
CC(=O)N[C@@H](C(=O)N1CC[C@](O)(c2ccc(Cl)cc2)C(C)(C)C1)C(C)C	15
CC(C)[C@@H](NC(=O)c1ccc(F)c(O)c1)C(=O)N1CC[C@](O)(c2ccc(Cl)cc2)C(C)(C)C1	13
CC(C)[C@@H](NC(=O)[C@H]1CC[C@H](O)C1)C(=O)N1CC[C@](O)(c2ccc(Cl)cc2)C(C)(C)C1	12
CC(C)[C@@H](NC(=O)c1ccccc1)C(=O)N1CC[C@](O)(c2ccc(Cl)cc2)C(C)(C)C1	10
CC(C)[C@@H](NC(=O)c1cccc(S(N)(=O)=O)c1)C(=O)N1CC[C@](O)(c2ccc(Cl)cc2)C(C)(C)C1	9.9
CC(C)[C@@H](NC(=O)c1cccc(C(=O)O)c1)C(=O)N1CC[C@](O)(c2ccc(Cl)cc2)C(C)(C)C1	8.9

Stronger by IC50, values ahead:

IC50 [nM]	SMILES
2.1	CC(C)[C@@H](NC(=O)[C@@H]1CC[C@@H](O)C1)C(=O)N1CC[C@](O)(c2ccc(Cl)cc2)C(C)(C)C1
5.6	CC(C)[C@@H](NC(=O)[C@@H]1CCC[C@@H]1N)C(=O)N1CC[C@](O)(c2ccc(Cl)cc2)C(C)(C)C1
3.1	CC(C)[C@@H](NC(=O)[C@@H]1CCC[C@@H]1O)C(=O)N1CC[C@](O)(c2ccc(Cl)cc2)C(C)(C)C1
8.3	CC(C)[C@@H](NC(=O)C1CCCC1(O)CCN1CCOCC1)C(=O)N1CC[C@](O)(c2ccc(Cl)cc2)C(C)(C)C1 (stereo partly drawn)
6.1	CC(C)[C@@H](NC(=O)c1cccnc1)C(=O)N1CC[C@](O)(c2ccc(Cl)cc2)C(C)(C)C1
5.5	CC(C)[C@@H](NC(=O)c1ccc(Cl)cc1)C(=O)N1CC[C@](O)(c2ccc(Cl)cc2)C(C)(C)C1
4.7	CC(C)[C@@H](NC(=O)c1ccccc1Cl)C(=O)N1CC[C@](O)(c2ccc(Cl)cc2)C(C)(C)C1
3.6	CCC(=O)N[C@@H](C(=O)N1CC[C@](O)(c2ccc(Cl)cc2)C(C)(C)C1)C(C)C
3.5	CC(C)[C@@H](NC(=O)Cc1ccncc1)C(=O)N1CC[C@](O)(c2ccc(Cl)cc2)C(C)(C)C1
2.9	CC(C)[C@@H](NC(=O)[C@@H]1CC[C@H](O)C1)C(=O)N1CC[C@](O)(c2ccc(Cl)cc2)C(C)(C)C1
2.5	CC(C)[C@@H](NC(=O)C1CCCC1)C(=O)N1CC[C@](O)(c2ccc(Cl)cc2)C(C)(C)C1
1.9	CC(C)CC(=O)N[C@@H](C(=O)N1CC[C@](O)(c2ccc(Cl)cc2)C(C)(C)C1)C(C)C
1.8	CC(C)[C@@H](NC(=O)Cc1ccccc1)C(=O)N1CC[C@](O)(c2ccc(Cl)cc2)C(C)(C)C1
1.2	CC(C)CCC(=O)N[C@@H](C(=O)N1CC[C@](O)(c2ccc(Cl)cc2)C(C)(C)C1)C(C)C
1.1	CC(C)[C@@H](NC(=O)[C@H]1CC[C@@H](O)C1)C(=O)N1CC[C@](O)(c2ccc(Cl)cc2)C(C)(C)C1

assay: Antagonist activity at human CCR1 assessed as inhibition of ieukotactin-1-induced chemotaxis

IC50 [nM]	SMILES
4.4	CC(C)[C@@H](NC(=O)[C@@H]1CC[C@@H](O)C1)C(=O)N1CC[C@](O)(c2ccc(Cl)cc2)C(C)(C)C1
